One assay deals with RET (Homo sapiens, UniProt P07949). Nature of the assay: HTRF method for testing the inhibitory activity of compounds against RET. The assay is classed as biochemical. The following applies: IC50 by nonlinear regression, read-out: RET kinase activity. Here is the method: (a) In Vitro Screening Experiment-HTRF Method for Testing the Inhibitory Activity of Compounds Against RET Experimental Procedure: 1. […] 2. The test compound (5 mM stock solution) was diluted 5 folds to 1 mM with 100% dimethyl sulfoxide; the compound was diluted into 10 concentrations at an equal ratio of 1:3 in a 384-well dilution plate. 3. 0.2 μL of the serially diluted compound was added to a 384-well plate using an Echo 550 pipetting system, 2 replicate wells for each concentration, and the final concentration of dimethyl sulfoxide was 0.5% (v/v). […] 6. […] The reaction solution was centrifuged at 1000 g for 30 s, and then sealed, and incubated at room temperature for 30 min. 8. […] 10. […] 11. […] IC50 was calculated with software GraphPad 6.0 by fitting inhibition values and logarithms of compound concentrations to a nonlinear regression (dose response−variable slope).
RET, sequence (P07949 29-1114): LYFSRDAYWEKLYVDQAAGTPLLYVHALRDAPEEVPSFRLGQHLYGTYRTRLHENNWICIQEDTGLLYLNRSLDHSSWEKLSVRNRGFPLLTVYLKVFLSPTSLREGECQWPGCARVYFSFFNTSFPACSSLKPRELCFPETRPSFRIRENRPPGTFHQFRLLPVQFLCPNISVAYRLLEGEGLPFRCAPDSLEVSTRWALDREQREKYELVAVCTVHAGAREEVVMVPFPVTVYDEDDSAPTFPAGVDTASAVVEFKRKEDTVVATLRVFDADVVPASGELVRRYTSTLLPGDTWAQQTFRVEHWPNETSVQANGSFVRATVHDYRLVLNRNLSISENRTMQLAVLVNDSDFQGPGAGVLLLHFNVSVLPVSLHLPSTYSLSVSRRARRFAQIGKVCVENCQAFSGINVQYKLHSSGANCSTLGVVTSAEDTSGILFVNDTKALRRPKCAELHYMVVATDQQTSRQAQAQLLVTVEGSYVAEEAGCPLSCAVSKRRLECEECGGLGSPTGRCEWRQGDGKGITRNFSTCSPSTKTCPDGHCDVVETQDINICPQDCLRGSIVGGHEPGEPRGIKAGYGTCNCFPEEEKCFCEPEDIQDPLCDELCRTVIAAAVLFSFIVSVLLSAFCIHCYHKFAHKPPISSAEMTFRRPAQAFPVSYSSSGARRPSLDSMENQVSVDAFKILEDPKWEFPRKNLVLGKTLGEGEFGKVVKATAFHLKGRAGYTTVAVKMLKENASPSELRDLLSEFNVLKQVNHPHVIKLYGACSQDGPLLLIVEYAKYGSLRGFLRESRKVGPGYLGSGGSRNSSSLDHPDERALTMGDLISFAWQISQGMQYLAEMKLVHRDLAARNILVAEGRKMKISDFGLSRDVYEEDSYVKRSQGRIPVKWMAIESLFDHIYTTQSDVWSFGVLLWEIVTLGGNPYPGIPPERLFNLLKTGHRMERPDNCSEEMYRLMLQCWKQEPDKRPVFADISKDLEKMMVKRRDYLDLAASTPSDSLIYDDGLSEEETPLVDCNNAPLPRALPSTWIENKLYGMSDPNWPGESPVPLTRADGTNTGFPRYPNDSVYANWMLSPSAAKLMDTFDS

Another assay concerns the target T1, Ba/F3-KIF5B-RET cell (Homo sapiens, UniProt P07949).
T1 construct: fused on or other part: P33176 (Kinesin-1 heavy chain)
Nature of the assay: CellTiter-Glo luminescence assay for inhibitory activity against Ba/F3-KIF5B-RET cell. The assay is classed as cell-based. The following applies: Ba/F3-KIF5B-RET cells, 72 h. From the text: (c) In Vitro Screening Experiment—CellTiter-Glo Luminescence Assay for Testing the Inhibitory Activity of Compounds Against Ba/F3-KIF5B-RET Cell Experimental Procedure: 1. The mammalian cell expression vector containing human KIF5B-RET cDNA was introduced into Ba/F3 cells using the Neon® transfection system method, and the surviving clones screened by puromycin were subjected to cell growth inhibitory function experiments and Western blotting to verify cell lines with stable and high expression of RET. 2. […] 3. The test compound (5 mM stock) was diluted 2.5 folds to 2 mM with 100% dimethyl sulfoxide; and the compound was diluted into 10 concentrations at an equal ratio of 1:3 in a 384-well dilution plate. 4. […] 6. […] 7. By fitting the data with XLFit 5.0 based on the parameters formula, the IC50 value was calculated as: Y=Bottom+(Top−Bottom)/(1+10^((Log IC50−X)*HillSlope)).

Another assay addresses VEGFR2 (Homo sapiens, UniProt P35968). The assay is described as follows: HTRF method for testing the inhibitory activity of compounds against VEGFR2. The assay is classed as biochemical. The following applies: IC50 by nonlinear regression, read-out: VEGFR2 kinase activity. Here is the method:
(b) In Vitro Screening Experiment—HTRF Method for Testing the Inhibitory Activity of Compounds Against VEGFR2 Experimental Procedure: 1. […] The test compound (5 mM stock solution) was diluted 5 folds to 1 mM with 100% dimethyl sulfoxide; the compound was diluted into 10 concentrations at an equal ratio of 1:3 in a 384-well dilution plate. 3. […] 6. […] The reaction solution was centrifuged at 1000 g for 30 s, and then sealed, and incubated at room temperature for 40 min. 8. […] 10. […] 11. […] 12. IC50 was calculated with software GraphPad 6.0 by fitting inhibition values and logarithms of compound concentrations to a nonlinear regression (dose response−variable slope).
(TR-FRET usually uses a lanthanide donor and a delayed reading to cut background.)

As a reminder, the GI50 is the concentration giving 50% growth inhibition. A low value points to more potent growth inhibition.

Where only a bound is given, the exact number is not on record here.

VEGFR2, sequence (P35968 20-1356, species assumed): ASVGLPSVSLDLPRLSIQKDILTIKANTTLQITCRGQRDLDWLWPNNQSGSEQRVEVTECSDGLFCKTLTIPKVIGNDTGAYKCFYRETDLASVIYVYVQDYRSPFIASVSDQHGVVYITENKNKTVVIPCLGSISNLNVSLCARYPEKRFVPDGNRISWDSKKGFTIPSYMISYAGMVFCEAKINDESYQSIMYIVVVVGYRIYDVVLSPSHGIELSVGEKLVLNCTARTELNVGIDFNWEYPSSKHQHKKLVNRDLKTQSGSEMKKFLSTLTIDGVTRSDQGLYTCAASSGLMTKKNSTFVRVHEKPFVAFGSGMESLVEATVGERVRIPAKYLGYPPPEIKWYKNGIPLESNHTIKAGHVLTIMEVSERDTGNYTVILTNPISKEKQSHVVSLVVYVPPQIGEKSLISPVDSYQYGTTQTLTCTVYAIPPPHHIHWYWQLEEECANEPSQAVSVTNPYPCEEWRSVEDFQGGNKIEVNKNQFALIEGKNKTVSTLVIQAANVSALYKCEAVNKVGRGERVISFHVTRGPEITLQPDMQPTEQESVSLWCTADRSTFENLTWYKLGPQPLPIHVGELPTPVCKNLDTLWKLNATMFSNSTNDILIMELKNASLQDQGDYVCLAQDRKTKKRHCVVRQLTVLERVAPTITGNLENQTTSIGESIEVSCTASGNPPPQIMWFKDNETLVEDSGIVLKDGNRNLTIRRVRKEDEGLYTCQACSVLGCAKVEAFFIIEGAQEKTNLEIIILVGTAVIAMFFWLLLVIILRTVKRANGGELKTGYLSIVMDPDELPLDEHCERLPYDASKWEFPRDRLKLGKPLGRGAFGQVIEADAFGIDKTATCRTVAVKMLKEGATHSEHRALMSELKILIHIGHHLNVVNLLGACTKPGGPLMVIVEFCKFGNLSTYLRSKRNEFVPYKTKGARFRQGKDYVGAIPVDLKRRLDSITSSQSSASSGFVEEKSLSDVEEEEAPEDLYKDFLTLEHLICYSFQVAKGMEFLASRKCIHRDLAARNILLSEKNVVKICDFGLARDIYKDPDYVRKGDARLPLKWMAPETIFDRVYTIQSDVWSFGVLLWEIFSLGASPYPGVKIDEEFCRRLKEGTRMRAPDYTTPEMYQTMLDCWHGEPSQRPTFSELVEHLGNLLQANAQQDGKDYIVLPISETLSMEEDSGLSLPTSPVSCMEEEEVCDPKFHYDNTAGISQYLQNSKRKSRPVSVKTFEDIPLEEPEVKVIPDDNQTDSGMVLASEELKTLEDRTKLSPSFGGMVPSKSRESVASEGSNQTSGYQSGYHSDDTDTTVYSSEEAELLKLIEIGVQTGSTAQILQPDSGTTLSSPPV
T1 sequence (P07949 whole entry, change not shown, the tested form may be a part): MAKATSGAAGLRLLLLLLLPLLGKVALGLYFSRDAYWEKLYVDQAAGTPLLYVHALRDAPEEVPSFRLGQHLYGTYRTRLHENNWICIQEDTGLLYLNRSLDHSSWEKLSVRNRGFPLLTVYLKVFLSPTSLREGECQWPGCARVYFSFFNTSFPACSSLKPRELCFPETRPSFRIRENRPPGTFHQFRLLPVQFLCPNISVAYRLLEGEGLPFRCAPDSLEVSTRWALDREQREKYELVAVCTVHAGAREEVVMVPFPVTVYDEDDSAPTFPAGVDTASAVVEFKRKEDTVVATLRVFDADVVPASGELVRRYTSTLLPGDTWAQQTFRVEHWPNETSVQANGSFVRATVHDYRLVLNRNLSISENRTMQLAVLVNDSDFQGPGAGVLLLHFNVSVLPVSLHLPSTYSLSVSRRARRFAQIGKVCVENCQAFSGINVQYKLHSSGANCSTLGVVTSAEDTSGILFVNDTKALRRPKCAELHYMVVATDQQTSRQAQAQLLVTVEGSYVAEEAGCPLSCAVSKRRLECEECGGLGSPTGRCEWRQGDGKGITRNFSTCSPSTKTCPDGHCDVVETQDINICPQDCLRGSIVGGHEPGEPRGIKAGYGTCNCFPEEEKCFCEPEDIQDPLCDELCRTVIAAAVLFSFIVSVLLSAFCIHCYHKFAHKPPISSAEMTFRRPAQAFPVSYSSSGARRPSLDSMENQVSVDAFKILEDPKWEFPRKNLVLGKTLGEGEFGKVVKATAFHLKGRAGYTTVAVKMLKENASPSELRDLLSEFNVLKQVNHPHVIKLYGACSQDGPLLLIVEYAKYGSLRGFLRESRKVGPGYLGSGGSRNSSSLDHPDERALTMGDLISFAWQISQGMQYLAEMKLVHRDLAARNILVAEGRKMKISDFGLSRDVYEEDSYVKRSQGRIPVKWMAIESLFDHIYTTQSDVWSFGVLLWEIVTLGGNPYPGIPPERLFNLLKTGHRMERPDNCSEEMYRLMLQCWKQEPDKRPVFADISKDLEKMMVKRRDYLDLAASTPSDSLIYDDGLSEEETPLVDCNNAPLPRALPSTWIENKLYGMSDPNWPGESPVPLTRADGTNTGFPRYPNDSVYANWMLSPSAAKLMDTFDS

`C[C@@H](c1ccc(-n2cc(F)cn2)nc1)N(C)c1ccc(-c2cc(OCC(F)F)cn3ncc(C#N)c23)cn1` [Compound 34, (S)-4-(6-((1-(6-(4-fluoro-1H-pyrazol-1-yl)pyridin-3-yl)ethyl)(methyl)amino)pyridine-3-yl)-6-(2,2-difluoroethoxy)pyrazolo[1,5-a]pyridine-3-carbonitrile]: the IC50 at RET was 1.55 nM; at VEGFR2, 128 nM. The GI50 on Ba/F3-KIF5B-RET cell amounted to 119 nM.
As for `C[C@@H](c1ccc(N2CCCC2)nc1)N(C)c1ccc(-c2cc(OCC(C)(C)O)cn3ncc(C#N)c23)cn1` [Compound 62], the IC50 at RET came to 1.85 nM; at VEGFR2 it was 176 nM. Besides, halving of growth on Ba/F3-KIF5B-RET cell (GI50) required 1030 nM.
On the same counts, the results for `C[C@@H](Nc1ccc(-c2cc(OCC(C)(C)O)cn3ncc(C#N)c23)cn1)c1ccc(-n2cc(F)cn2)nc1` [Compound 5, (R)-4-(6-((1-(6-(4-fluoro-1H-pyrazol-1-yl)pyridin-3-yl)ethyl)amino)pyridin-3-yl)-6-(2-hydroxy-2-methylpropoxy)pyrazolo[1,5-a]pyridine-3-carbonitrile] are 6.3 nM, 44.7 nM and 85.1 nM.
The like results for `CC(C)COc1cc(-c2ccc(N(C)[C@@H](C)c3ccc(-n4cc(F)cn4)nc3)nc2)c2c(C#N)cnn2c1` [Compound 33, (S)-4-(6-((1-(6-(4-fluoro-1H-pyrazol-1-yl)pyridin-3-yl)ethyl)(methyl)amino)pyridine-3-yl)-6-isobutoxypyrazolo[1,5-a]pyridine-3-carbonitrile] were, in that order, 3.04 nM, greater than 5000 nM and 413 nM.
On the same counts, the results for `CCn1cc(-c2cc(-c3ccc(N(C)[C@@H](C)c4ccc(-n5cc(F)cn5)nc4)nc3)c3c(C#N)cnn3c2)cn1` [Compound 38, (S)-6-(1-ethyl-1H-pyrazol-4-yl)-4-(6-((1-(6-(4-fluoro-1H-pyrazol-1-yl)pyridine-3-yl)ethyl)(methyl)amino)pyridin-3-yl)pyrazolo[1,5-a]pyridine-3-carbonitrile] are 0.56 nM, 7.39 nM and 5.14 nM.
Turning to `C[C@@H](c1ccc(-n2cc(F)cn2)nc1)N(C)c1ccc(-c2cc(OCC(C)(C)O)cn3ncc(C#N)c23)cn1` [Compound 61, (S)-4-(6-((1-(6-(4-fluoro-1H-pyrazol-1-yl)pyridin-3-yl)ethyl)(methyl)amino)pyridine-3-yl)-6-(2-hydroxy-2-methylpropoxy)pyrazolo[1,5-a]pyridine-3-carbonitrile], the values for the IC50 at RET and on VEGFR2 were 0.48 nM and 25.5 nM, respectively. For the same molecule, it took 1.53 nM to inhibit growth at Ba/F3-KIF5B-RET cell by half (GI50).
On the same counts, the results for `C[C@@H](c1ccc(-n2cc(F)cn2)nc1)N(C)c1ccc(-c2cc(N3CCC4(CC3)COC4)cn3ncc(C#N)c23)cn1` [Compound 25, (S)-4-(6-((1-(6-(4-fluoro-1H-pyrazol-1-yl)pyridin-3-yl)ethyl)(methyl)amino)pyridine-3-yl)-6-(2-oxo-7-azaspiro[3.5]nonan-7-yl)pyrazolo[1,5-a]pyridine-3-carbonitrile] are 0.54 nM, 61.1 nM and 14.7 nM.
On to `N#Cc1cnn2cc(OC[C@H]3CNCCO3)cc(-c3ccc(NCc4ccc(-n5cc(F)cn5)nc4)nc3)c12` [Compound 3], for which the IC50 worked out at 0.19 nM on RET and 1.08 nM at VEGFR2. At Ba/F3-KIF5B-RET cell, this molecule displayed a GI50 of 18 nM.
With `CN(Cc1ccc2ncccc2c1)c1ccc(-c2cc(OCC(C)(C)O)cn3ncc(C#N)c23)cn1` [Compound 14, 6-(2-hydroxy-2-methylpropoxy)-4-(6-(methyl(quinolin-6-ylmethyl)amino)pyridin-3-yl)pyrazolo[1,5-a]pyridine-3-carbonitrile], the IC50 came out at 16.6 nM at RET and 347 nM on VEGFR2. The molecule further displayed a GI50 on Ba/F3-KIF5B-RET cell of 220 nM.

The record behind these values is patent US12552785B2, “Pyrazolo[1,5-α]pyridine derivative, preparation method therefor, and composition and use thereof” (SHENZHEN ZHONGGE BIOLOGICAL TECHNOLOGY CO., LTD., priority 2020, dated 2026).
